Patent publication US20200239530A1, “COMPOUNDS AND METHODS OF MODULATING PROTEIN DEGRADATION” (Vividion Therapeutics, Inc., priority 2017, published 2020)

Tests used:
Assay in all cases: Cysteine liganding, probe competition
Type in all cases: binding
[1] = biological target: T1, CKMT1B Creatine kinase U-type, mitochondrial (Homo sapiens, UniProt P12532); conditions: for Liganded: CKMT1B Res# 316, uniprot P12532
T1 construct: 200 μL of lysate containing 5 mg/ml proteome was treated with 2 μL of 100× compound stock; endogenous in cells
Method in brief: (§1)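 Read-out is loss of desthiobiotin iodoacetamide labelling at cysteines, measured on streptavidin-enriched tryptic peptides. Compound preincubation ran 1 hr at 25° C in PBS lysate holding 5 mg/ml proteome before the probe was added.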

[2] = biological target: T2, RPS6KA1 Ribosomal protein S6 kinase alpha-1 (Homo sapiens, UniProt Q15418)
T2 construct: Cells were resuspended in cold PBS on ice and sonicated with a probe sonicator to achieve lysis; endogenous in cells
T2 sequence (Q15418 whole entry): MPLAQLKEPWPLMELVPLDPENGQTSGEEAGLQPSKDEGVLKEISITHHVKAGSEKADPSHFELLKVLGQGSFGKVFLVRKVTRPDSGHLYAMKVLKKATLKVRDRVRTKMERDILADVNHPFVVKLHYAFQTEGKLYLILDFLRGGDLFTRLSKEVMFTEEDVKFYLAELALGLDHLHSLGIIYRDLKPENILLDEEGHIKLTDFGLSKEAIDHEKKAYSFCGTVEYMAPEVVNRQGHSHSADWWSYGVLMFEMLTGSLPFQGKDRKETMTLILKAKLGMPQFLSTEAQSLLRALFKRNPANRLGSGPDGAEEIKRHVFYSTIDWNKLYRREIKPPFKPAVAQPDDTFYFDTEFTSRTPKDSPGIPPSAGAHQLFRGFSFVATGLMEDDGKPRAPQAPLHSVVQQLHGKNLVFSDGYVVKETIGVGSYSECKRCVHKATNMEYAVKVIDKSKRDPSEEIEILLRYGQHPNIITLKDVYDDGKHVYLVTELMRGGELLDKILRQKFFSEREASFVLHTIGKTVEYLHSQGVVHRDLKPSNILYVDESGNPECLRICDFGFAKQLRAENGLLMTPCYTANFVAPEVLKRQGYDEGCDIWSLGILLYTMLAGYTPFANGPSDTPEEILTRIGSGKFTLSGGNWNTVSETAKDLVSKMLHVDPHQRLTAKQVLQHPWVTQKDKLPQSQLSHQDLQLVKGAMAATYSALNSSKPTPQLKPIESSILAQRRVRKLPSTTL
Method in brief: as §1

[3] = biological target: T3, ZNF644 Zinc finger protein 644 (Homo sapiens, UniProt Q9H582)
T3 construct: Cells were resuspended in cold PBS on ice and sonicated with a probe sonicator to achieve lysis; endogenous in cells
T3 sequence (Q9H582 1-1327): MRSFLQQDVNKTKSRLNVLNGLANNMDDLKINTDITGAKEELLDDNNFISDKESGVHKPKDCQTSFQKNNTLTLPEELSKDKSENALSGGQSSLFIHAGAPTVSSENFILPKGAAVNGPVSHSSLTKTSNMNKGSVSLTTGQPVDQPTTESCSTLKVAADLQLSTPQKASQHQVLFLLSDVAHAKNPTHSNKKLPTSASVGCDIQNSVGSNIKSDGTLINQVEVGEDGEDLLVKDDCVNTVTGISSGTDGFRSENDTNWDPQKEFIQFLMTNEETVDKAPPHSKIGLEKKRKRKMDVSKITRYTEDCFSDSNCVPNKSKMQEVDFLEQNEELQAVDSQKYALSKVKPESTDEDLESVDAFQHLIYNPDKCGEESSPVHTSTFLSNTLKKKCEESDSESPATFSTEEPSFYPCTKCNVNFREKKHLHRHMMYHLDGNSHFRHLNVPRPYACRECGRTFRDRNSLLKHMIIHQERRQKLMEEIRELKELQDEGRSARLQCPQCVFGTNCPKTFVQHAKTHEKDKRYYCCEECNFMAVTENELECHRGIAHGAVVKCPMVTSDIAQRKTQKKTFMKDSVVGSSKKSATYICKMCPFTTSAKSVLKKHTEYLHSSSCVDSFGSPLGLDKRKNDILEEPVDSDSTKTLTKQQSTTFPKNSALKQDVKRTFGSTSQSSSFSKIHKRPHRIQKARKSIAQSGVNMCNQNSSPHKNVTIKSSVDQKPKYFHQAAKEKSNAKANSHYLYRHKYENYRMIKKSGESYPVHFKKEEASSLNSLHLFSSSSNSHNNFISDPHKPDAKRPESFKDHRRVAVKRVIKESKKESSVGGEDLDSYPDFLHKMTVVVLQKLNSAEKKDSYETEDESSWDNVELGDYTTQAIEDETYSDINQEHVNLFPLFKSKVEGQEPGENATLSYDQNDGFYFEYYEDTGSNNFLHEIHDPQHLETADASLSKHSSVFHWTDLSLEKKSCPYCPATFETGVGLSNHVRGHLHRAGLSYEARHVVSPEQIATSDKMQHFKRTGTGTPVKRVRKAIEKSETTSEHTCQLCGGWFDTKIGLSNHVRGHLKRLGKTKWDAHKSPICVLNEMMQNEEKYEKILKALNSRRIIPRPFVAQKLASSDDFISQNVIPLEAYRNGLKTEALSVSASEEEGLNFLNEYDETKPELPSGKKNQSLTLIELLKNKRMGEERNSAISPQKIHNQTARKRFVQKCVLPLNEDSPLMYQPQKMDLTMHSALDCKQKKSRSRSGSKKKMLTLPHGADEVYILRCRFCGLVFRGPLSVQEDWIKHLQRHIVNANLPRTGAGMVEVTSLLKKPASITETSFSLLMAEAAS
Method in brief: as §1

SMILES | Liganded [1] | Liganded ([2]; RPS6KA1 Res# 223, uniprot Q15418) | Liganded ([3]; ZNF644 Res# 507, uniprot Q9H582) | 100 Max ([1]; uniprot P12532) | 100 ave ([1]; uniprot P12532) | 500 ave ([1]; uniprot P12532) | 500 Max ([1]; uniprot P12532, in % (unit assumed)) | 100 Max ([2]; uniprot Q15418) | 100 ave ([2]; uniprot Q15418) | 500 ave ([2]; uniprot Q15418) | 500 Max ([2]; uniprot Q15418, in % (unit assumed)) | 100 Max ([3]; uniprot Q9H582) | 100 ave ([3]; uniprot Q9H582) | 500 ave ([3]; uniprot Q9H582) | 500 Max ([3]; uniprot Q9H582, in % (unit assumed))
COc1ccc2c(c1)CCCN2C(=O)CCl [KB02] | YES | YES | YES |  |  |  |  |  |  |  |  |  |  |  | 
O=C(CCl)Nc1cc(C(F)(F)F)cc(C(F)(F)F)c1 [KBO3] | YES |  |  | 42.35 | 29.59 | 81.71 | 86.19 | 1.03 | 1.03 | 30.61 | 30.61 | 24.53 | 11.2825 | 67.685 | 72.77
